{"source": "patent EP0418990A2", "about": "“13-Bromo and 13,14-dibromo ergoline, their preparation and their use” (SCHERING AKTIENGESELLSCHAFT, priority 1989, dated 1991)", "test_system": "Ratten", "assay": "Automatic recording of stereotypies in rats (Horowski method), dopamine-agonist effect", "assay_type": "in vivo, männliche Wistar-Ratten", "details": "60 min after treatment", "description": "Die dopaminagonistische Wirkung wurde mit Hilfe der von Horowski beschriebenen Methode der automatischen Registrierung von Stereotypien an Ratten bestimmt (Arzneim. Forsch. 12, 2281-2286, 1978): Unmittelbar nach intraperitonealer Prüfsubstanz- bzw. Vehikelverabreichung werden männliche Wistar-Ratten (90-120 g) einzeln in Zwangskäfige aus Acrylglas gesetzt. Über ein vor dem Kopf der Tiere angebrachtes elektrodynamisches Aufnahmesystem wird die Zahl der Kontakte an einem stählernen Becher mit einem zentralen Metallstab als Folge der stereotypen Kau-, Leck- und Nagebewegungen während 60 Minuten registriert. Die Mittelwerte ± S.E.M. der Anzahl der Kontakte während 60 Minuten für die verschiedenen Behandlungsgruppen, die mit jeweils 12 Tieren besetzt sind, werden berechnet und die Signifikanz der Unterschiede zwischen den Mittelwerten der verschiedenen Prüfsubstanzdosen im Vergleich zur Vehikel-behandelten Kontrollgruppe mit Hilfe der einfachen Varianzanalyse in Verbindung mit dem Dunnett-Test ermittelt.", "data": [{"smiles": "CCN(CC)C(=O)N[C@H]1C[C@@H]2c3cc(Br)cc4[nH]c(C)c(c34)C[C@H]2N(CC)C1", "note": "[CH2CH3, 3-(13-Brom-6-ethyl-2-methyl-8α-ergolinyl)-1,1-diethyl-harnstoff]", "values": [{"measurement": "Stereotypien(counts pro 60 Minuten) (Mittelwert ± S.E.M.)", "setting": "dose 0.025 mg/kg intraperitoneal, n=12, vehicle control 2137 ± 849", "result": "1943 ± 472", "unit": "counts pro 60 Minuten"}, {"measurement": "Stereotypien(counts pro 60 Minuten) (Mittelwert ± S.E.M.)", "setting": "dose 0.1 mg/kg intraperitoneal, n=12, vehicle control 2137 ± 849", "result": "2470 ± 548", "unit": "counts pro 60 Minuten"}, {"measurement": "Stereotypien(counts pro 60 Minuten) (Mittelwert ± S.E.M.)", "setting": "dose 0.39 mg/kg intraperitoneal, n=12, xx: p<0.01 vs. control, vehicle control 2137 ± 849", "result": "7499 ± 1342", "unit": "xx counts pro 60 Minuten"}, {"measurement": "Stereotypien(counts pro 60 Minuten) (Mittelwert ± S.E.M.)", "setting": "dose 1.56 mg/kg intraperitoneal, n=12, xx: p<0.01 vs. control, vehicle control 2137 ± 849", "result": "8066 ± 1248", "unit": "xx counts pro 60 Minuten"}, {"measurement": "Stereotypien(counts pro 60 Minuten) (Mittelwert ± S.E.M.)", "setting": "dose 6.25 mg/kg intraperitoneal, n=12, xx: p<0.01 vs. control, vehicle control 2137 ± 849", "result": "7381 ±1336", "unit": "xx counts pro 60 Minuten"}]}]}
